According to patent US20120122860A1, “SOLID FORMS OF SULFONAMIDES AND AMINO ACIDS” (Plexxikon, Inc., priority 2009, published 2012):

How the values were obtained:
B-Raf = B-Raf (Homo sapiens, UniProt P15056); test: Kinase activity assay, B-Raf; format: biochemical; conditions: read-out: activity toward kinase B-Raf, IC50
B-Raf V600E = B-Raf V600E (Homo sapiens, UniProt P15056, V600E); test: Kinase activity assay, B-Raf V600E; format: biochemical; conditions: read-out: activity toward kinase B-Raf V600E, IC50
Chain of B-Raf V600E (P15056 whole entry V600E): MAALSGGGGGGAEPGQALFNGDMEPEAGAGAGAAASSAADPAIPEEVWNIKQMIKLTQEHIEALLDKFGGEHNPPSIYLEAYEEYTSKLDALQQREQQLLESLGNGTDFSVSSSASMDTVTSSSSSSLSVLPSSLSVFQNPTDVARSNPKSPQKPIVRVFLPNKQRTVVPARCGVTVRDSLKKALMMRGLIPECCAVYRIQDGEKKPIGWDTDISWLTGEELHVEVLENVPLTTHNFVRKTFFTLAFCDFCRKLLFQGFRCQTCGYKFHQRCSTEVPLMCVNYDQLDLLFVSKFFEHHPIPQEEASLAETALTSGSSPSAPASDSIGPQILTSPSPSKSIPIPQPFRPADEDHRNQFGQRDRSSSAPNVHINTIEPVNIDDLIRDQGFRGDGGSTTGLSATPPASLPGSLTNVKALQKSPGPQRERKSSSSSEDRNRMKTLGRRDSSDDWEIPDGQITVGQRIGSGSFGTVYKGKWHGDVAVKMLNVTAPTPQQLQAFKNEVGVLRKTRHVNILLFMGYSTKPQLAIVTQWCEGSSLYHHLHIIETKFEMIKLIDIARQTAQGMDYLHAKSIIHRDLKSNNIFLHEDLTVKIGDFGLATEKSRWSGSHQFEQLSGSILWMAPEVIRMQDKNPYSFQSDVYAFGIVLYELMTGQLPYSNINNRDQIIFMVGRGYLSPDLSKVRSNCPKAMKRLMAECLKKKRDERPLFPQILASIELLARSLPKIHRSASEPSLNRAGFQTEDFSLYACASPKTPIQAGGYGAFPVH

C-Raf = C-Raf (Homo sapiens, UniProt P04049); test: Kinase activity assay, C-Raf
Chain of C-Raf (P04049 whole entry): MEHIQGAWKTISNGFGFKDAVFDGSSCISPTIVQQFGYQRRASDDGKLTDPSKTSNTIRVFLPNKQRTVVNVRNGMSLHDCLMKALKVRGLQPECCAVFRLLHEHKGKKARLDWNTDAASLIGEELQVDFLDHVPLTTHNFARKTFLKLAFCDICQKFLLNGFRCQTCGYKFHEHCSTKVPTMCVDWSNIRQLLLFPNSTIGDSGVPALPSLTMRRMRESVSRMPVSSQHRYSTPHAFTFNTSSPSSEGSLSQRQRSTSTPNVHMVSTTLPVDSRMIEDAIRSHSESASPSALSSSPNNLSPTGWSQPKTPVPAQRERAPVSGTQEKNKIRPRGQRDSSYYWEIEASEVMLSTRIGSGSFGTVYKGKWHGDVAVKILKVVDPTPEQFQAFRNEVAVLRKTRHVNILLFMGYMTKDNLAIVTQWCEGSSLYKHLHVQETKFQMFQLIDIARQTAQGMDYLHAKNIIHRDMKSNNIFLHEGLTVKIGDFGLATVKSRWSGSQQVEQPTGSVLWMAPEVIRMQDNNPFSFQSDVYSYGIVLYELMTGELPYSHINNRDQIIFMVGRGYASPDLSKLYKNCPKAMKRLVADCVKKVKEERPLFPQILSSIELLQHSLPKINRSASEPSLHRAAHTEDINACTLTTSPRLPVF

Btk = Btk (Homo sapiens, UniProt Q06187); test: Kinase activity assay, Btk
Chain of Btk (Q06187 whole entry): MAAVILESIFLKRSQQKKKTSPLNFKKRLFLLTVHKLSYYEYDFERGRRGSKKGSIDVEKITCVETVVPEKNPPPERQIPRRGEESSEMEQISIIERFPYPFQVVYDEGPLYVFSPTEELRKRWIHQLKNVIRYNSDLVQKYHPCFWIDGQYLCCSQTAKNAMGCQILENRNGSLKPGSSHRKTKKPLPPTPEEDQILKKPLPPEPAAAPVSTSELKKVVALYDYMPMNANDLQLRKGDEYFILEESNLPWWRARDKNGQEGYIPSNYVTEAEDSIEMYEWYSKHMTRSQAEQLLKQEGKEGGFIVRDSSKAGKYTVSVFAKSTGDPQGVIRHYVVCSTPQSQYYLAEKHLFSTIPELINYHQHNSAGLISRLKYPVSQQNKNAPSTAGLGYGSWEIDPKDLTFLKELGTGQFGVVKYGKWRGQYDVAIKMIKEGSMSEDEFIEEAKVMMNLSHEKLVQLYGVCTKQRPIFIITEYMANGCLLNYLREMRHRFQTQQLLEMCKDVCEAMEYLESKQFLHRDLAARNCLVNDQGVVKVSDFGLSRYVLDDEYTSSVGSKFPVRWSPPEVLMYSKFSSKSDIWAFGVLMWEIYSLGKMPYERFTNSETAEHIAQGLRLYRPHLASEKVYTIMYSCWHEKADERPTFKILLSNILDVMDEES

Src = Src (Homo sapiens, UniProt P12931); test: Kinase activity assay, Src
Chain of Src (P12931 whole entry): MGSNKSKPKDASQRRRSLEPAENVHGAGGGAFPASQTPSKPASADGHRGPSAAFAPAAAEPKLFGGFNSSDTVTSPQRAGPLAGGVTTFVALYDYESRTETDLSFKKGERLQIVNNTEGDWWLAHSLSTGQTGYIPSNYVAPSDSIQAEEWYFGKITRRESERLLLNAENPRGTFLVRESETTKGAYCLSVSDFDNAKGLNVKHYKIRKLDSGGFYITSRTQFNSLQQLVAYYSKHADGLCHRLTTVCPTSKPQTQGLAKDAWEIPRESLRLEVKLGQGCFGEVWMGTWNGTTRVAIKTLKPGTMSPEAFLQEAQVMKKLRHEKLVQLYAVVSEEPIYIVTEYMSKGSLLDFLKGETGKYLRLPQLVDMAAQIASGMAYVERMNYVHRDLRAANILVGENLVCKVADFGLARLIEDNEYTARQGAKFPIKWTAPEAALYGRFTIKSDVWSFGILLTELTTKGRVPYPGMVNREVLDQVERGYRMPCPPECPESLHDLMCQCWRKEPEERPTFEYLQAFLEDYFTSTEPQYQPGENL

Kdr = Kdr (Homo sapiens, UniProt P35968); test: Kinase activity assay, Kdr
Kit = Kit (Homo sapiens, UniProt P10721); test: Kinase activity assay, Kit
Chain of Kit (P10721 26-976): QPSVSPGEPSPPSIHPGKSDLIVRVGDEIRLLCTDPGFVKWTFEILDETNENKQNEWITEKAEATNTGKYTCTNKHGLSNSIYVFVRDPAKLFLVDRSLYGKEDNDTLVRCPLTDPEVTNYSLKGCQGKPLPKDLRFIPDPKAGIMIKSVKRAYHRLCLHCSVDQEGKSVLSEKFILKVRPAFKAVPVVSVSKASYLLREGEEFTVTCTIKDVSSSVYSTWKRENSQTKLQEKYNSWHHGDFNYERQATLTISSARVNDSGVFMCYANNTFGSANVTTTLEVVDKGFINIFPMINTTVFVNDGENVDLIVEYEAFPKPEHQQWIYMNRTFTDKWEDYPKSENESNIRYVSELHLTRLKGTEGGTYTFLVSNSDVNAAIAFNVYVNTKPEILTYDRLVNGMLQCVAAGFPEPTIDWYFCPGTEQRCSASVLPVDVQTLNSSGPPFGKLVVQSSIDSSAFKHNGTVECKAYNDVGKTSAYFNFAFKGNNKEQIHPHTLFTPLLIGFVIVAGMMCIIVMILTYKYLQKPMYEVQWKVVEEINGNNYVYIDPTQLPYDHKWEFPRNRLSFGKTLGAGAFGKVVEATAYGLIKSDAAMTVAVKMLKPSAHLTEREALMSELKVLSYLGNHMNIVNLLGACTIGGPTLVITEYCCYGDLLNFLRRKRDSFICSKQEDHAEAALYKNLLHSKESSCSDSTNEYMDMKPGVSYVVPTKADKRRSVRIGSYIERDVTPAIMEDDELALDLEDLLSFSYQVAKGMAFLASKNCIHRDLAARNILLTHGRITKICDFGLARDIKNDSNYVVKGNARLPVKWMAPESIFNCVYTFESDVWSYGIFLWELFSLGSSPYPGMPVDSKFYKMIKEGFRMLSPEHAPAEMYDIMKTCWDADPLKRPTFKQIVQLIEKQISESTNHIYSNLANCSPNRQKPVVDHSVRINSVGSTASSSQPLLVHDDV

TEC = target: T1, TEC (Homo sapiens, UniProt P42680); test: Kinase activity assay, TEC
T1 sequence (P42680 1-631): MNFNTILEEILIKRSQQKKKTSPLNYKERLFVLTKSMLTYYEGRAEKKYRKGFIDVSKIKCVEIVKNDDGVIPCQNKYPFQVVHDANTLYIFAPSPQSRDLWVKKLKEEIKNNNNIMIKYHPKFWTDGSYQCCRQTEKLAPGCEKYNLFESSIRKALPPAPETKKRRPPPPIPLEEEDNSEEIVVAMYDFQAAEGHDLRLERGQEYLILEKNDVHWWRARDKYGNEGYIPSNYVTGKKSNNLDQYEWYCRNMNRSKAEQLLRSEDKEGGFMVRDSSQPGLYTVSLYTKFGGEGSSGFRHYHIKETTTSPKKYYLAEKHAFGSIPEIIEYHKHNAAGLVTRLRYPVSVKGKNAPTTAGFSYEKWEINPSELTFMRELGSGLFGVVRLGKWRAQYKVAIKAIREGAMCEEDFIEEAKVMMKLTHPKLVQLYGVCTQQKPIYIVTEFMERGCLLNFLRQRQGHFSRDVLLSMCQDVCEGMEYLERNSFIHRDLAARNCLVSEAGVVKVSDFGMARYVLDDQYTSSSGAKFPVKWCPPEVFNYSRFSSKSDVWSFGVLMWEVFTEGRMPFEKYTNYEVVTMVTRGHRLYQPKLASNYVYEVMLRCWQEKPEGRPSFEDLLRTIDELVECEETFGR

Fms = Fms (Homo sapiens, UniProt P07333); test: Kinase activity assay, Fms
Chain of Fms (P07333 20-972): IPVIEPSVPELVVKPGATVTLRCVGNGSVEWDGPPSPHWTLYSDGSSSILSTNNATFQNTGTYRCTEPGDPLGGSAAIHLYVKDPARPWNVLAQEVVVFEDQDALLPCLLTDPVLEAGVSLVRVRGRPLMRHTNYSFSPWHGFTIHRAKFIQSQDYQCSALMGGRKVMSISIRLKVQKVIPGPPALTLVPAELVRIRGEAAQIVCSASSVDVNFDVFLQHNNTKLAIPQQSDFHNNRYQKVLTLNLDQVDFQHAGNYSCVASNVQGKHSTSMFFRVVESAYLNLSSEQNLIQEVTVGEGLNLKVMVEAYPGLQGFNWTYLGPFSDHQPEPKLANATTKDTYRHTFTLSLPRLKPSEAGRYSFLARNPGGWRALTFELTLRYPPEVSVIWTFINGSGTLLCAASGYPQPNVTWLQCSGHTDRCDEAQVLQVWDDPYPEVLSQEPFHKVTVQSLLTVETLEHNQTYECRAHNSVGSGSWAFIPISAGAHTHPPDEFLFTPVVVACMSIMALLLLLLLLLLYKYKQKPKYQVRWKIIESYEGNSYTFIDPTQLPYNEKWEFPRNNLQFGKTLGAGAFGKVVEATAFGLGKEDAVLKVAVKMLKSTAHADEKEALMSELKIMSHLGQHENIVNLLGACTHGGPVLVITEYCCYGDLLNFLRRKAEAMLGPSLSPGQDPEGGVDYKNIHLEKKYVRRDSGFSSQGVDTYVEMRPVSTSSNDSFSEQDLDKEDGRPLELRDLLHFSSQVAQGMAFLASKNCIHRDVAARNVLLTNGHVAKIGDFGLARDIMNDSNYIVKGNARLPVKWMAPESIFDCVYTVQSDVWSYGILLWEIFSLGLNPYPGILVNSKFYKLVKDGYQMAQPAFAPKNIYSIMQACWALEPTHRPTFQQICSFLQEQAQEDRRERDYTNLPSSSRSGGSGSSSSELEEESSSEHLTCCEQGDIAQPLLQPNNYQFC

Measured: IC50

Chain of B-Raf (P15056 whole entry): as the sequence (P15056 whole entry V600E) above, with E600V counted along it

N#Cc1cnc2[nH]cc(C(=O)c3cccc(NS(=O)(=O)c4ccccc4F)c3F)c2c1 [P-2051, N-[3-(5-Cyano-1H-pyrrolo[2,3-b]pyridine-3-carbonyl)-2-fluoro-phenyl]-2-fluoro-benzenesulfonamide]
not listed: Fms
≤ 10 µM: all other assays above

N#Cc1cnc2[nH]cc(C(=O)c3cccc(NS(=O)(=O)c4cc(F)ccc4F)c3F)c2c1 [P-2052, N-[3-(5-Cyano-1H-pyrrolo[2,3-b]pyridine-3-carbonyl)-2-fluoro-phenyl]-2,5-difluoro-benzenesulfonamide]
not listed: Fms
≤ 10 µM: all other assays above

N#Cc1cnc2[nH]cc(C(=O)c3cccc(NS(=O)(=O)c4cccc(F)c4)c3F)c2c1 [P-2053, N-[3-(5-Cyano-1H-pyrrolo[2,3-b]pyridine-3-carbonyl)-2-fluoro-phenyl]-3-fluoro-benzenesulfonamide]
not listed: Kdr | Kit | Fms
≤ 10 µM: all other assays above

N#Cc1cnc2[nH]cc(C(=O)c3cccc(NS(=O)(=O)c4c(F)cccc4F)c3F)c2c1 [P-2054, N-[3-(5-Cyano-1H-pyrrolo[2,3-b]pyridine-3-carbonyl)-2-fluoro-phenyl]-2,6-difluoro-benzenesulfonamide]
not listed: Fms
≤ 10 µM: all other assays above

N#Cc1cnc2[nH]cc(C(=O)c3cccc(NS(=O)(=O)c4ccccn4)c3F)c2c1 [P-2087, Pyridine-2-sulfonic acid [3-(5-cyano-1H-pyrrolo[2,3-b]pyridine-3-carbonyl)-2-fluoro-phenyl]-amide]
not listed: Kdr | Kit | Fms
≤ 10 µM: all other assays above

O=C(c1cc(NS(=O)(=O)c2cccc(F)c2)ccc1F)c1c[nH]c2ncccc12 [P-2120, 3-Fluoro-N-[4-fluoro-3-(1H-pyrrolo[2,3-b]pyridine-3-carbonyl)-phenyl]-benzenesulfonamide]
not listed: B-Raf | C-Raf | Src
≤ 10 µM: all other assays above

Cn1cc(-c2cnc3[nH]cc(C(=O)c4cccc(NS(=O)(=O)c5ccc(Cl)cc5)c4)c3c2)cn1 [P-2129, 4-Chloro-N-{3-[5-(1-methyl-1H-pyrazol-4-yl)-1H-pyrrolo[2,3-b]pyridine-3-carbonyl]-phenyl}-benzenesulfonamide]
not listed: B-Raf | C-Raf | Src
≤ 10 µM: all other assays above

Cn1cc(-c2cnc3[nH]cc(C(=O)c4cccc(NS(=O)(=O)c5ccc(F)cc5)c4)c3c2)cn1 [P-2130, 4-Fluoro-N-{3-[5-(1-methyl-1H-pyrazol-4-yl)-1H-pyrrolo[2,3-b]pyridine-3-carbonyl]-phenyl}-benzenesulfonamide]
not listed: B-Raf | C-Raf | Src
≤ 10 µM: all other assays above

Cn1cc(-c2cnc3[nH]cc(C(=O)c4cccc(NS(=O)(=O)c5cccc(C(F)(F)F)c5)c4)c3c2)cn1 [P-2131, N-{3-[5-(1-Methyl-1H-pyrazol-4-yl)-1H-pyrrolo[2,3-b]pyridine-3-carbonyl]-phenyl}-3-trifluoromethyl-benzenesulfonamide]
not listed: B-Raf | C-Raf | Src
≤ 10 µM: all other assays above

Cn1cc(-c2cnc3[nH]cc(C(=O)c4cccc(NS(=O)(=O)c5cccc(Cl)c5)c4)c3c2)cn1 [P-2134, 3-Chloro-N-{3-[5-(1-methyl-1H-pyrazol-4-yl)-1H-pyrrolo[2,3-b]pyridine-3-carbonyl]-phenyl}-benzenesulfonamide]
not listed: B-Raf | C-Raf | Src
≤ 10 µM: all other assays above

Cn1cc(-c2cnc3[nH]cc(C(=O)c4cccc(NS(=O)(=O)c5cccc(F)c5)c4)c3c2)cn1 [P-2136, 3-Fluoro-N-{3-[5-(1-methyl-1H-pyrazol-4-yl)-1H-pyrrolo[2,3-b]pyridine-3-carbonyl]-phenyl}-benzenesulfonamide]
not listed: B-Raf | C-Raf | Src
≤ 10 µM: all other assays above

CCCS(=O)(=O)Nc1ccc(F)c(C(=O)c2c[nH]c3ncc(-c4ccc(NC(C)=O)cc4)cc23)c1F [P-2161, N-(4-{3-[2,6-Difluoro-3-(propane-1-sulfonylamino)-benzoyl]-1H-pyrrolo[2,3-b]pyridin-5-yl}-phenyl)-acetamide]
not listed: B-Raf | C-Raf
≤ 10 µM: all other assays above

CCCS(=O)(=O)Nc1ccc(F)c(C(=O)c2c[nH]c3ncc(-c4cnn(CCN5CCOCC5)c4)cc23)c1F [P-2177, Propane-1-sulfonic acid (2,4-difluoro-3-{5-[1-(2-morpholin-4-yl-ethyl)-1H-pyrazol-4-yl]-1H-pyrrolo[2,3-b]pyridine-3-carbonyl}-phenyl)-amide]
not listed: C-Raf
≤ 10 µM: all other assays above

COc1ncc(-c2cnc3[nH]cc(C(=O)c4c(F)ccc(NS(=O)(=O)N5CCCC5)c4F)c3c2)cn1 [P-2400]
not listed: Fms
≤ 10 µM: all other assays above

N#Cc1cnc2[nH]cc(C(=O)c3cccc(NS(=O)(=O)CC(F)(F)F)c3F)c2c1 [P-2414, 2,2,2-Trifluoro-ethanesulfonic acid [3-(5-cyano-1H-pyrrolo[2,3-b]pyridine-3-carbonyl)-2-fluoro-phenyl]-amide]
not listed: Kdr | Kit | Fms
≤ 10 µM: all other assays above

O=C(c1cc(NS(=O)(=O)N2CCCCC2)ccc1F)c1c[nH]c2ncccc12 [P-2440, Piperidine-1-sulfonic acid [4-fluoro-3-(1H-pyrrolo[2,3-b]pyridine-3-carbonyl)-phenyl]-amide]
≤ 10 µM: Btk | Fms | TEC

CCCS(=O)(=O)Nc1cccc(C(=O)c2c[nH]c3ncc(-c4cnn(C)c4)cc23)c1 [P-2454, Propane-1-sulfonic acid {3-[5-(1-methyl-1H-pyrazol-4-yl)-1H-pyrrolo[2,3-b]pyridine-3-carbonyl]-phenyl}-amide]
not listed: B-Raf | C-Raf | Src
≤ 10 µM: all other assays above

CCCCS(=O)(=O)Nc1cccc(C(=O)c2c[nH]c3ncc(-c4cnn(C)c4)cc23)c1 [P-2455, Butane-1-sulfonic acid {3-[5-(1-methyl-1H-pyrazol-4-yl)-1H-pyrrolo[2,3-b]pyridine-3-carbonyl]-phenyl}-amide]
not listed: B-Raf | C-Raf | Src
≤ 10 µM: all other assays above

O=C(c1cc(NS(=O)(=O)N2CCCCC2)ccc1F)c1c[nH]c2ncc(Cl)cc12 [P-2468, Piperidine-1-sulfonic acid [3-(5-chloro-1H-pyrrolo[2,3-b]pyridine-3-carbonyl)-4-fluoro-phenyl]-amide]
not listed: B-Raf | C-Raf | Src
≤ 10 µM: all other assays above

O=C(c1cccc(NS(=O)(=O)N2CCCCC2)c1)c1c[nH]c2ncc(Cl)cc12 [P-2471, Piperidine-1-sulfonic acid [3-(5-chloro-1H-pyrrolo[2,3-b]pyridine-3-carbonyl)-phenyl]-amide]
≤ 10 µM: Btk | Kdr | Kit | Fms | TEC
